# Measured values taken from patent US11655235B2, “Pyrrolidine and piperidine compounds” (YUHAN CORPORATION, priority 2019, dated 2023).
# Tests used:
# Type in all cases: biochemical
# DPP4 = DPP4 (Homo sapiens, UniProt P27487); assay: DPP4 inhibition, fluorogenic substrate H-Gly-Pro-AMC; design: purchased R&D Systems; conditions: recombinant human DPP4
# recombinant human DPP9 = biological target: T1, recombinant human DPP9 (Homo sapiens, UniProt Q86TI2); assay: DPP9 inhibition, fluorogenic substrate H-Gly-Pro-AMC; conditions: recombinant human DPP9
# T1 construct: purchased R&D Systems
# T1 sequence (Q86TI2 whole entry): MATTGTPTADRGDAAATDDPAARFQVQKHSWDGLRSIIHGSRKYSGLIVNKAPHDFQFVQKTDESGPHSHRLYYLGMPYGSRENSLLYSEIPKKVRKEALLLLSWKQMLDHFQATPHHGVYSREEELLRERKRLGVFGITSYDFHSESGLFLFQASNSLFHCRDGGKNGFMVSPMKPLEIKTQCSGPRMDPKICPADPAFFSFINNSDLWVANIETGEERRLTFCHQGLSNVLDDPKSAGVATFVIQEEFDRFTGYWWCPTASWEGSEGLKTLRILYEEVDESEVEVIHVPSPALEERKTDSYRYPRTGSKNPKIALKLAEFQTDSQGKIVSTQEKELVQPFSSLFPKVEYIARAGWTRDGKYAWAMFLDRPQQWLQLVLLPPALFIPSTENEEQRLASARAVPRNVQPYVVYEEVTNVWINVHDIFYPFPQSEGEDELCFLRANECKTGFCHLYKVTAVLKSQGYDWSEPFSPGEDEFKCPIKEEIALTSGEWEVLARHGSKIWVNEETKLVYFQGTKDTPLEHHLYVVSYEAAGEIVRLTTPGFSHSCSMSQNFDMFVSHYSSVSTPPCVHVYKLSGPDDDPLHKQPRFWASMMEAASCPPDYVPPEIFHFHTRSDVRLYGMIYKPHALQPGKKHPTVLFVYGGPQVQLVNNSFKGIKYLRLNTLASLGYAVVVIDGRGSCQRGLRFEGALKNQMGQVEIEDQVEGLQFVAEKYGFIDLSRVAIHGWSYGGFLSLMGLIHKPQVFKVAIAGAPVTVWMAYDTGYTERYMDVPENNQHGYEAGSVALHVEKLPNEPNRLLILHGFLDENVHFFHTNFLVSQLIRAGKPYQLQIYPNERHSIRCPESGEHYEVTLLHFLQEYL
# Summary of the method: (§1)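 Enzyme per reaction: 50 ng DPP9, 20 ng DPP8, 10 ng each DPP7 and PREP. Compounds were serially diluted (8 points, up to 0.5% DMSO) and incubated at 25 °C.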
# Recombinant human FAP = biological target: T2, Recombinant human FAP (Homo sapiens, UniProt Q12884); assay: FAP FRET assay, FGF21-sequence FRET peptide substrate; conditions: FRET peptide with human FGF21 sequence, 6 μM, 37° C.
# T2 construct: purchased R&D systems
# T2 sequence (Q12884 1-760): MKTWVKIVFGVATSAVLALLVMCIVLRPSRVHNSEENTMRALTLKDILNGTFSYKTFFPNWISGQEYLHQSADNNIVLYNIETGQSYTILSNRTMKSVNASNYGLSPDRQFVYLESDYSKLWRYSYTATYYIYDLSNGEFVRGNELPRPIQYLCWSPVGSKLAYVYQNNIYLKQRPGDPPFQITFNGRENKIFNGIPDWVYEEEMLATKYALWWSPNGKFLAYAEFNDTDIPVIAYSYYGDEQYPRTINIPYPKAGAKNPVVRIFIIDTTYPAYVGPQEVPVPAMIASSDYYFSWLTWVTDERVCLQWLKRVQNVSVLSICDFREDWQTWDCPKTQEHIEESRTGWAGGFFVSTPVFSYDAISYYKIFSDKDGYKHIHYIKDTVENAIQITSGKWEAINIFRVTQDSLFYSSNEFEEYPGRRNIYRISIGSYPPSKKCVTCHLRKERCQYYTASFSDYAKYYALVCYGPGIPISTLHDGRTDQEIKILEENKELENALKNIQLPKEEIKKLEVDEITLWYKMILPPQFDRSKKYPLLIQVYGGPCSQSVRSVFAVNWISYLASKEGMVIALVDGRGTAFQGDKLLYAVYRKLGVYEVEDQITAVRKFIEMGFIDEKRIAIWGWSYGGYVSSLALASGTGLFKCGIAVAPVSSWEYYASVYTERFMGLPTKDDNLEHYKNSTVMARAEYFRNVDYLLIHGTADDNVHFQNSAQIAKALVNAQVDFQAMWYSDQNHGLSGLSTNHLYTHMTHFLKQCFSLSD
# Summary of the method: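 Recombinant human FAP, 10 ng per reaction, in 50 mM HEPES pH 7.2 with 150 mM NaCl, 0.1 mg/ml BSA, 1 mM EDTA; HyLite Fluor 488/QXL 520 FRET peptide of human FGF21 sequence at 6 μM final, ≤0.1% DMSO, 37° C. IC50 from 8-point curves by four-parameter logistic fit.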
# recombinant human PREP = biological target: T3, recombinant human PREP (Homo sapiens, UniProt P48147); assay: PREP inhibition, fluorogenic substrate Z-Gly-Pro-AMC; conditions: Inhibitory Activity (IC50, nM) PREP, recombinant human PREP
# T3 construct: purchased R&D System
# T3 sequence (P48147 1-710): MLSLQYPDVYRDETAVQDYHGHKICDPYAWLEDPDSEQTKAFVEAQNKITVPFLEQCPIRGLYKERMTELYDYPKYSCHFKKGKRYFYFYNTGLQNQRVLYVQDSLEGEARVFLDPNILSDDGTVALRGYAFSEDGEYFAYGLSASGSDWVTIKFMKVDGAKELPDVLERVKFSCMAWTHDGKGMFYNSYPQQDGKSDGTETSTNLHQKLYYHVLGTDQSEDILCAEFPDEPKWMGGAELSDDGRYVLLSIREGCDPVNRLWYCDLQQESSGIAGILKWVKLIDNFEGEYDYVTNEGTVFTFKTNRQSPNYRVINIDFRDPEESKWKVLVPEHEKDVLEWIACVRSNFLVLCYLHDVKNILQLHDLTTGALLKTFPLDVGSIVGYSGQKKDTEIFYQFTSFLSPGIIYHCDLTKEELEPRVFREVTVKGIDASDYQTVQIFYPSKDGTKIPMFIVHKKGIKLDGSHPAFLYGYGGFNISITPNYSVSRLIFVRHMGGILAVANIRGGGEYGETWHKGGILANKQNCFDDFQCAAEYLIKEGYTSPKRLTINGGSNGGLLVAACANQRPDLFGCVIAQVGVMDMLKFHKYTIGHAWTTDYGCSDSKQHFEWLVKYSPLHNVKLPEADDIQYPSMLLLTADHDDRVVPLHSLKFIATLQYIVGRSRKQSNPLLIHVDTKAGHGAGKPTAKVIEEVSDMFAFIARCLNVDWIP
# Summary of the method: as §1
# recombinant human DPP7 = biological target: T4, recombinant human DPP7 (Homo sapiens, UniProt Q9UHL4); assay: DPP7 inhibition, fluorogenic substrate Lys-Pro-AMC; conditions: recombinant human DPP7
# T4 construct: purchased R&D Systems
# Summary of the method: as §1
# Sequence of DPP4 (P27487 whole entry): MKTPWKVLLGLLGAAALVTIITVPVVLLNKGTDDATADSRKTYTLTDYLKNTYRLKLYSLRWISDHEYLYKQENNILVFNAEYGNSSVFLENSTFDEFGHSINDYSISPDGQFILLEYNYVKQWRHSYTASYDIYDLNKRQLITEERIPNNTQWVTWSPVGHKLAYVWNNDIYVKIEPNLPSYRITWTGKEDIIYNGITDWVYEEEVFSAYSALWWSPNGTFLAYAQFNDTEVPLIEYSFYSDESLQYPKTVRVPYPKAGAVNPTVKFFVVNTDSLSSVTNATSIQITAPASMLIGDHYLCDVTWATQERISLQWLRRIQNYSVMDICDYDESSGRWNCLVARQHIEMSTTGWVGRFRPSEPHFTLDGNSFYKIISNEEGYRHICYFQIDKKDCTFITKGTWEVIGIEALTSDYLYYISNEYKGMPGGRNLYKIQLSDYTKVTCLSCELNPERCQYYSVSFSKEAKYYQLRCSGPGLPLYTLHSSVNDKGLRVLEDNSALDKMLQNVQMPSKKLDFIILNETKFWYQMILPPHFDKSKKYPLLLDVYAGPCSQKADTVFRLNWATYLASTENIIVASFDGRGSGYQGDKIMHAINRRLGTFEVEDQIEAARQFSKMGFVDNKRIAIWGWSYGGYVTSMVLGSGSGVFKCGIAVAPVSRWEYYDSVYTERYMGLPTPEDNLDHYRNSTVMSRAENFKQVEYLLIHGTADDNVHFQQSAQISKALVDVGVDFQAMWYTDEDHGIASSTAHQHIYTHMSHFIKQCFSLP
Compound,IC50 (DPP4) [µM],IC50 (recombinant human DPP9) [µM],IC50 (Recombinant human FAP) [nM],IC50 (recombinant human PREP) [nM],IC50 (recombinant human DPP7) [nM]
"CCN(c1cnc2ccccc2c1)C1CCN(CC(=O)N2CCC[C@H]2C#N)CC1 [Example 302, (2S)-1-[2-[4-[ethyl(3-quinolyl)amino]-1-piperidyl]acetyl]pyrrolidine-2-carbonitrile]",≥ 100,≥ 100,22.2,350,7350
"CCN(c1ccc2ncccc2c1)C1CCN(CC(=O)N2CCC[C@H]2C#N)CC1 [Example 303, (2S)-1-[2-[4-[ethyl(6-quinolyl)amino]-1-piperidyl]acetyl]pyrrolidine-2-carbonitrile]",≥ 100,≥ 100,9.2,483,1940
"CCN(c1cnc2ccccc2c1)C1CCN(CC(=O)N2C[C@@H](F)C[C@H]2C#N)CC1 [Example 304, (2S,4S)-1-[2-[4-[ethyl(3-quinolyl)amino]-1-piperidyl]acetyl]-4-fluoro-pyrrolidine-2-carbonitrile]",18.8,7.6,8,117,1050
"CCN(c1ccc2ncccc2c1)C1CCN(CC(=O)N2C[C@@H](F)C[C@H]2C#N)CC1 [Example 306, (2S,4S)-1-[2-[4-[ethyl(6-quinolyl)amino]-1-piperidyl]acetyl]-4-fluoro-pyrrolidine-2-carbonitrile]",24.3,13.2,4.4,129,477
"CNC(=O)c1ccc(NC2CCN(CC(=O)N3C[C@@H](F)C[C@H]3C#N)CC2)c2cccnc12 [Example 390, N-methyl-5-[[1-[2-oxo-2-[(2S,4S)-2-cyano-4-fluoro-pyrrolidin-1-yl]ethyl]-4-piperidyl]amino]quinoline-8-carboxamide]",1.52,1.32,5.9,1420,358
"N#C[C@@H]1C[C@H](F)CN1C(=O)CN1CCC(Nc2ccc(C(=O)Nc3ccccc3)c3ncccc23)CC1 [Example 394, 5-[[1-[2-oxo-2-[(2S,4S)-2-cyano-4-fluoro-pyrrolidin-1-yl]ethyl]-4-piperidyl]amino]-N-phenyl-quinoline-8-carboxamide]",2.54,1.09,1.3,421,361

# Now from value to compound:
IC50 (DPP4) [µM],IC50 (recombinant human DPP9) [µM],IC50 (Recombinant human FAP) [nM],IC50 (recombinant human PREP) [nM],IC50 (recombinant human DPP7) [nM],Compound
1.86,3.07,2.1,6520,257,"N#C[C@@H]1C[C@H](F)CN1C(=O)CN1CC[C@H](Nc2ccc(NC(=O)c3ccccc3)c3ncccc23)C1 [Example 298, N-[5-[[(3S)-1-[2-oxo-2-[(2S,4S)-2-cyano-4-fluoro-pyrrolidin-1-yl]ethyl]pyrrolidin-3-yl]amino]-8-quinolyl]benzamide]"
4.57,5.2,7,4910,307,"CCOc1ccc(NC2CCN(CC(=O)N3C[C@@H](F)C[C@H]3C#N)CC2)c2cccnc12 [Example 371, (2S,4S)-1-[2-[4-[(8-ethoxy-5-quinolyl)amino]-1-piperidyl]acetyl]-4-fluoro-pyrrolidine-2-carbonitrile]"
1.65,0.945,51.6,2000,645,"N#C[C@@H]1C[C@H](F)CN1C(=O)CN1CCC(Nc2cccc3ncsc23)CC1 [Example 372, (2S,4S)-1-[2-[4-(1,3-benzothiazol-7-ylamino)-1-piperidyl]acetyl]-4-fluoro-pyrrolidine-2-carbonitrile]"
3.51,4.37,7,870,226,"N#C[C@@H]1C[C@H](F)CN1C(=O)CN1CCC(Nc2cc(Cl)c3ncccc3c2)CC1 [Example 376, (2S,4S)-1-[2-[4-[(8-chloro-6-quinolyl)amino]-1-piperidyl]acetyl]-4-fluoro-pyrrolidine-2-carbonitrile]"
